The assay deals with L1210 leukemia ip in BDF1 mice, survival T/C. The assay can be described thus: NCI In Vivo Anticancer Drug Screen. Data for tumor model L1210 Leukemia (intraperitoneal) in B6D2F1 (BDF1) mice. As to conditions: endpoint: mean survival time, higher = longer survival. The procedure, abridged: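 Value reflects the ratio of survival in compound-treated mice to survival in vehicle-treated controls, with both groups carrying the same transplanted tumor.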

The mark [1] stands for this setting: dose: 100.0 mg/kg/injection, schedule: Q04DX003 (ip), vehicle: Klucel (hydroxypropylcellulose) (HPC).
[2] abbreviates: dose: 200.0 mg/kg/injection, schedule: Q04DX003 (ip), vehicle: Klucel (hydroxypropylcellulose) (HPC).
[3] abbreviates: dose: 100.0 mg/kg/injection, schedule: Q04DX003 (ip), vehicle: saline with Tween-80.
Setting [4] is: dose: 200.0 mg/kg/injection, schedule: Q04DX003 (ip), vehicle: saline with Tween-80.
Setting [5] is: dose: 400.0 mg/kg/injection, schedule: Q04DX003 (ip), vehicle: saline with Tween-80.
Setting [6] is: dose: 100.0 mg/kg/injection, schedule: Q01DX009 (ip), vehicle: Klucel (hydroxypropylcellulose) (HPC).
Where [7] appears, read: dose: 200.0 mg/kg/injection, schedule: Q01DX009 (ip), vehicle: Klucel (hydroxypropylcellulose) (HPC).
[8] abbreviates: dose: 400.0 mg/kg/injection, schedule: Q01DX009 (ip), vehicle: Klucel (hydroxypropylcellulose) (HPC).
Setting [9] is: dose: 400.0 mg/kg/injection, schedule: Q04DX003 (ip), vehicle: Klucel (hydroxypropylcellulose) (HPC).
Where [10] appears, read: dose: 25.0 mg/kg/injection, schedule: Q04DX003 (ip), vehicle: Klucel (hydroxypropylcellulose) (HPC).
Setting [11] is: dose: 50.0 mg/kg/injection, schedule: Q01DX001 (ip), vehicle: Klucel (hydroxypropylcellulose) (HPC).
The mark [12] stands for this setting: dose: 100.0 mg/kg/injection, schedule: Q01DX001 (ip), vehicle: Klucel (hydroxypropylcellulose) (HPC).
Setting [13] is: dose: 100.0 mg/kg/injection, schedule: Q01DX001 (ip), vehicle: saline with Tween-80.
The mark [14] stands for this setting: dose: 200.0 mg/kg/injection, schedule: Q01DX001 (ip), vehicle: Klucel (hydroxypropylcellulose) (HPC).
Where [15] appears, read: dose: 400.0 mg/kg/injection, schedule: Q01DX001 (ip), vehicle: Klucel (hydroxypropylcellulose) (HPC).
Setting [16] is: dose: 100.0 mg/kg/injection, schedule: Q04DX003 (ip), vehicle: saline.
[17] abbreviates: dose: 200.0 mg/kg/injection, schedule: Q04DX003 (ip), vehicle: saline.
Where [18] appears, read: dose: 400.0 mg/kg/injection, schedule: Q04DX003 (ip), vehicle: saline.

Several values for one entry are separate records, joined by “and”; a condition that tells them apart may be missing. Equal values may be shown once. Toxic doses and inconclusive results are not listed.

Consider `OC(CCl)CNc1ccc(-c2ccccc2)cc1` (stereo unspecified), for which the T/C (dose: 100.0 mg/kg/injection, schedule: Q01DX001 (ip), vehicle: other) is 94 % of control; the T/C under setting [1] is 100 % of control; the T/C (dose: 200.0 mg/kg/injection, schedule: Q01DX001 (ip), vehicle: other) was 92 % of control; the T/C under setting [2] was 86 % of control; the T/C (dose: 400.0 mg/kg/injection, schedule: Q01DX001 (ip), vehicle: other) is 97 % of control.

On to `C=Cc1cnc(N)nc1-c1ccccc1`, for which the T/C was 90 % of control under setting [3], 105 % of control under setting [4] and 97 % of control under setting [5].

Consider `COc1cccc(CCC(=O)c2ccccc2)c1`, for which the T/C was 106 % of control (dose: 100.0 mg/kg/injection, schedule: Q04DX002 (ip), vehicle: Klucel (hydroxypropylcellulose) (HPC)); 90 % of control (dose: 200.0 mg/kg/injection, schedule: Q04DX002 (ip), vehicle: Klucel (hydroxypropylcellulose) (HPC)); 94 % of control (dose: 400.0 mg/kg/injection, schedule: Q04DX002 (ip), vehicle: Klucel (hydroxypropylcellulose) (HPC)).

Take `COc1ccc(Cl)cc1NC(=O)Nc1cc(Cl)c(Cl)cc1C`: the T/C is, setting by setting: under setting [6], 102 % of control; under setting [1], 95 % of control; under setting [7], 100 % of control; under setting [2], 94 % of control; under setting [8], 97 % of control; under setting [9], 94 % of control.

On to `O=c1[nH]c2cscc2c(=O)n1OS(=O)(=O)c1ccccc1`, for which the T/C is 93 % of control under setting [6], 95 % of control under setting [7] and 100 % of control under setting [8].

In the case of `c1ccc(-c2csc3n4ccccc4c[n+]23)cc1`, the T/C was 97 % of control (dose: 6.25 mg/kg/injection, schedule: Q04DX002 (ip), vehicle: saline with Tween-80); 100 % of control (dose: 12.5 mg/kg/injection, schedule: Q04DX002 (ip), vehicle: saline with Tween-80); 93 % of control (dose: 25.0 mg/kg/injection, schedule: Q04DX002 (ip), vehicle: saline with Tween-80).

Regarding `C[N+](C)(C)CC1(COC(=O)C(O)(c2ccccc2)c2ccccc2)CC1`, the T/C is 97 % of control (dose: 12.0 mg/kg/injection, schedule: Q04DX003 (ip), vehicle: Klucel (hydroxypropylcellulose) (HPC)); 93 % of control (dose: 25.0 mg/kg/injection, schedule: Q01DX001 (ip), vehicle: Klucel (hydroxypropylcellulose) (HPC)); 105 % of control under setting [10]; 100 % of control under setting [11]; 95 % of control (dose: 50.0 mg/kg/injection, schedule: Q04DX003 (ip), vehicle: Klucel (hydroxypropylcellulose) (HPC)); 96 % of control and 100 % of control under setting [12].

In the case of `NC(=O)c1c(Br)n(C2OC(CO)C(O)C2O)c2ncnc(N)c12` (stereo unspecified), the T/C is 102 % of control (dose: 50.0 mg/kg/injection, schedule: Q04DX003 (ip), vehicle: saline with Tween-80); 121 % of control (dose: 100.0 mg/kg/injection, schedule: Q01DX001 (ip), vehicle: saline); 111 % of control (dose: 178.0 mg/kg/injection, schedule: Q01DX001 (ip), vehicle: saline); 109 % of control (dose: 267.0 mg/kg/injection, schedule: Q01DX001 (ip), vehicle: saline); 120 % of control (dose: 400.0 mg/kg/injection, schedule: Q01DX001 (ip), vehicle: saline); 150 % of control under setting [5].

Turning to `O=C(CS(=O)(=O)O)Nc1ccccc1`, the T/C is, setting by setting: under setting [13], 94 % of control; (dose: 200.0 mg/kg/injection, schedule: Q01DX001 (ip), vehicle: saline with Tween-80) 97 % of control; (dose: 400.0 mg/kg/injection, schedule: Q01DX001 (ip), vehicle: saline with Tween-80) 100 % of control.

In the case of `CC(=O)c1cccc(N=C=O)c1`, the T/C reads like this: (dose: 25.0 mg/kg/injection, schedule: Q01DX001 (ip), vehicle: saline with Tween-80) 101 % of control; (dose: 50.0 mg/kg/injection, schedule: Q01DX001 (ip), vehicle: saline with Tween-80) 93 % of control; under setting [13], 111 % of control.

`CC1(C)CCO/C(=C\C(=O)N2Cc3cc4ccccc4nc3C2)N1`: the T/C runs as follows: under setting [12], 88 % of control; under setting [14], 86 % of control; under setting [15], 90 % of control.

On to `COC(=O)C1CCC=C2C1CC1CC2C1(C)C` (stereo unspecified), for which the T/C is, setting by setting: under setting [1], 97 % of control; under setting [2], 103 % of control; under setting [9], 95 % of control.

As to `CCCCCCSC1=C(SCCCCCC)C(=O)c2[nH]cnc2C1=O`, the T/C is, setting by setting: (dose: 50.0 mg/kg/injection, schedule: Q01DX001 (ip), vehicle: carboxymethylcellulose (CMC)) 100 % of control; (dose: 100.0 mg/kg/injection, schedule: Q01DX001 (ip), vehicle: carboxymethylcellulose (CMC)) 95 % of control; (dose: 200.0 mg/kg/injection, schedule: Q01DX001 (ip), vehicle: carboxymethylcellulose (CMC)) 90 % of control; (dose: 400.0 mg/kg/injection, schedule: Q01DX001 (ip), vehicle: carboxymethylcellulose (CMC)) 90 % of control.

As for `CC1(c2cccc3ccccc23)OCC2(CCC2)CO1`, the T/C was 102 % of control under setting [12], 98 % of control under setting [14] and 100 % of control under setting [15].

`c1ccc2c(c1)NC(C1Nc3ccccc3S1)S2` (stereo unspecified): the T/C is, setting by setting: (dose: 100.0 mg/kg/injection, schedule: Q01DX001 (ip), vehicle: acetone) 90 % of control; under setting [1], 93 % of control; (dose: 200.0 mg/kg/injection, schedule: Q01DX001 (ip), vehicle: acetone) 88 % of control; under setting [2], 93 % of control; (dose: 400.0 mg/kg/injection, schedule: Q01DX001 (ip), vehicle: acetone) 88 % of control; under setting [9], 90 % of control.

In the case of `CCOC(=O)NCCCNC(=O)OCC`, the T/C is, setting by setting: under setting [16], 95 % of control; under setting [17], 103 % of control; under setting [18], 97 % of control.

Take `CC(C)N(CCCO)C(C)C`: the T/C reads like this: (dose: 50.0 mg/kg/injection, schedule: Q01DX009 (ip), vehicle: saline) 95 % of control; (dose: 100.0 mg/kg/injection, schedule: Q01DX009 (ip), vehicle: saline) 93 % of control; under setting [3], 95 % of control; (dose: 200.0 mg/kg/injection, schedule: Q01DX009 (ip), vehicle: saline) 95 % of control; under setting [4], 97 % of control.

With `COc1ccc([N+](=O)[O-])cn1`, the T/C is, setting by setting: under setting [3], 98 % of control; under setting [4], 91 % of control; under setting [5], 88 % of control.

As to `CC([NH-])C(C)[NH-].CC([NH-])C(C)[NH-].[Cl][Co][Cl]` (stereo unspecified), the T/C by setting is: (dose: 50.0 mg/kg/injection, schedule: Q04DX002 (ip), vehicle: saline) 102 % of control; (dose: 100.0 mg/kg/injection, schedule: Q04DX002 (ip), vehicle: saline) 112 % of control; (dose: 200.0 mg/kg/injection, schedule: Q04DX002 (ip), vehicle: saline) 122 % of control.

In the case of `C=CCN(C(=O)OCC)c1ccccc1`, the T/C was 110 % of control under setting [6]; 95 % of control under setting [1]; 108 % of control under setting [7]; 106 % of control under setting [2]; 93 % of control under setting [8]; 106 % of control under setting [9].

For `COc1ccc2c(c1)CCC1C2CCC2C(O)CCCC21` (stereo unspecified), the T/C under setting [11] was 95 % of control, the T/C under setting [12] was 93 % of control and the T/C under setting [14] was 87 % of control.

As to `Cc1ccc(NC(=O)NCC2(C)CC(NC(=O)Nc3ccc(C)cc3)CC(C)(C)C2)cc1` (stereo unspecified), the T/C reads like this: (dose: 50.0 mg/kg/injection, schedule: Q01DX009 (ip), vehicle: saline with Tween-80) 87 % of control; under setting [3], 91 % of control; under setting [4], 91 % of control.

Regarding `CC(=O)Nc1ccc(C(=O)/C=C/C(=O)O)c(O)c1`, the T/C runs as follows: under setting [16], 98 % of control; under setting [17], 100 % of control; under setting [18], 100 % of control.

For `O/N=C1\C(Cl)C2CC1C1C=CCC12` (stereo unspecified), under setting [10], the T/C was 91 % of control.

With `CC1OC(n2cnc3c(N)nc(F)nc32)C(O)C1O` (stereo unspecified), the T/C (dose: 37.5 mg/kg/injection, schedule: Q01DX001 (ip), vehicle: other) was 112 % of control.

The values are drawn from PubChem BioAssay AID248 (DTP/NCI, 2004).
